tested on: HIV; assay: Assay for inhibition of HIV replication (spread assay): acute HIV infection of T-lymphoid cells; type: cell-based; conditions: Human immunodeficiency virus 1, 'less than about'
Procedure: Assays for the inhibition of acute HIV infection of T-lymphoid cells were conducted in accordance with Vacca, J. P. et al., Proc. Natl. Acad. Set USA 1994, 91: 4096. […] For example, the compounds of Examples 1 to 64 were tested in this assay and found to have IC95 values of less than about 10 micromolar.

Row | SMILES | IC95
1 | CN1CCCCn2c(c3c(c(O)c2=O)C(=O)N(Cc2ccc(F)cc2)CC3)C1=O [Example 2, 11-(4-Fluorobenzyl)-9-hydroxy-2-methyl-3,4,5,6,12,13-hexahydro-2H[1,4]diazocino[2,1-a]-2,6-naphthyridine-1,8,10(11H)-trione] | < 10 µM
2 | CC1(C)C(=O)N(CCCO)c2c3c(c(O)c(=O)n21)C(=O)N(Cc1ccc(F)c(Cl)c1)CC3 [Example 55, 8-(3-Chloro-4-fluorobenzyl)-6-hydroxy-1-(3-hydroxypropyl)-3,3-dimethyl-1,8,9,10-tetrahydroimidazo[2,1-a]-2,6-naphthyridine-2,5,7(3H)-trione] | < 10 µM
3 | CC1CCCN(CCn2ccnc2)C(=O)c2c3c(c(O)c(=O)n21)C(=O)N(Cc1ccc(F)c(Cl)c1)CC3 (stereo not drawn) [Example 36, 11-(3-Chloro-4-fluorobenzyl)-9-hydroxy-2-[2-(1H-imidazol-1-yl)ethyl]-6-methyl-3,4,5,6,12,13-hexahydro-2H[1,4]diazocino[2,1-a]-2,6-naphthyridine-1,8,10(11H)-trione] | < 10 µM
